Type in all cases: biochemical
The target of one assay is T1, Thrombine (human plasma) (Homo sapiens, UniProt P00734).
T1 construct: purchased Sigma-Aldrich; host or cells: human plasma
Briefly: Thrombin inhibition, chromogenic substrate Biophen CS-21(66).

The target in another assay is T2, FXa (Homo sapiens, UniProt P00742).
T2 construct: purchased Nodia
The assay is described as follows: FXa inhibition, chromogenic substrate Biophen CS-11(32). The source says:
(§1) The IC50 values For KLK1, KLK2 and KLK8 were obtained in a similar way. For plasmin, tPA, thrombin, Fxa, HNE, Plasma kallikrein Chromogenic substrates were used (absorption: 405 nm). (KLK2, KLK4, KLK8 were supplied by Viktor Magdolen TUMunich (TUM)).

The target of a further assay is T3, tPA (recombinant) (Homo sapiens, UniProt P00750).
T3 construct: purchased Nodia
T3 sequence (P00750 36-562, species assumed): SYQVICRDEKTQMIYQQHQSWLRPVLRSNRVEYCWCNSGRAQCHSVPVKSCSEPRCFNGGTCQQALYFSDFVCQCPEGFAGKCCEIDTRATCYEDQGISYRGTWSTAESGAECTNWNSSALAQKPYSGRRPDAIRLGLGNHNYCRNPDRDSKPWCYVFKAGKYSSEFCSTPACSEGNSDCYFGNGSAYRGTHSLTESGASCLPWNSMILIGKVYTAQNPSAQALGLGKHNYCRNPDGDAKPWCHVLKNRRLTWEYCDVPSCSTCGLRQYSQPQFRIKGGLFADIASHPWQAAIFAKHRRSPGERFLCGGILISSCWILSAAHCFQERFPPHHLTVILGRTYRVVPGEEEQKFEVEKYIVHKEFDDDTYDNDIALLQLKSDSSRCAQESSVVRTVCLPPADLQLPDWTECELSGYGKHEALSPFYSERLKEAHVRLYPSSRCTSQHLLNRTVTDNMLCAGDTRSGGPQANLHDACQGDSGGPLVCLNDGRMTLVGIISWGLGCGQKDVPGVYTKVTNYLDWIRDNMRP
Briefly: tPA inhibition, chromogenic substrate Biophen CS-05(88).
Description: as §1

Another assay has as its target T4, Matriptase (Homo sapiens, UniProt Q9Y5Y6).
T4 sequence (Q9Y5Y6 1-855): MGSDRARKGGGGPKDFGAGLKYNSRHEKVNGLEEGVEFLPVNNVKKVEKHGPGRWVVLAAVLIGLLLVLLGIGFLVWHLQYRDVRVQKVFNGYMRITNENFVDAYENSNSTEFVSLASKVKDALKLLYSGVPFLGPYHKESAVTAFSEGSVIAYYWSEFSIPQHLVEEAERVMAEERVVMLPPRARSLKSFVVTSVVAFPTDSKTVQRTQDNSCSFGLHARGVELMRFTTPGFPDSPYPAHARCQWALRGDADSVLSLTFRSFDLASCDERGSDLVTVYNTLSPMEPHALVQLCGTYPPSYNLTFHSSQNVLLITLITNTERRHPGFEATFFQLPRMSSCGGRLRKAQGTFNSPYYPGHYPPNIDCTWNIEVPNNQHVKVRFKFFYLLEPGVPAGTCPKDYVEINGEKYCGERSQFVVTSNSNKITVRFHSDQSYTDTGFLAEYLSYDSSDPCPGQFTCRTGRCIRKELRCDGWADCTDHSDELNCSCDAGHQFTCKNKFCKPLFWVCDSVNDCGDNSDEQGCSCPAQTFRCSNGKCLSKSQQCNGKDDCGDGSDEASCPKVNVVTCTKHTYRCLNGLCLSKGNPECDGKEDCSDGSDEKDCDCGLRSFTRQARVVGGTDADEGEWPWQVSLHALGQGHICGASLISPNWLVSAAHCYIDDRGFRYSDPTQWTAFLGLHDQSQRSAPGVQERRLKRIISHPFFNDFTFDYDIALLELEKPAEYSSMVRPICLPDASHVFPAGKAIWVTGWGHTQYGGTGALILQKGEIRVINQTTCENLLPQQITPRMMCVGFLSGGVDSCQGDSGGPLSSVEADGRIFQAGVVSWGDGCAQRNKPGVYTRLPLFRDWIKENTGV
The assay is described as follows: Matriptase inhibition.

Assay [1] addresses T5, KLK4 (Homo sapiens, UniProt Q9Y5K2).
T5 construct: purchased Viktor Magdolen (TUM), supplied by an academic laboratory
The assay is described as follows: KLK4 enzymatic inhibition, fluorogenic substrate Boc-Val-Pro-Arg-AMC. As to the method:
The substrate was obtained form Bachem and the enzyme was provided by Viktor Magdolen (TUM). The reaction was monitored with an excitation wavelength of 355 nm and emission wavelength of 460 nm. The initial rate was determined between 2500000 and 4500000 mRFU/min. The reaction mixture contained 25 μM substrate and approximately 1 mU of enzyme in 145 μL of buffer in a final volume of […]. A 50 mM Tris buffer, pH 8.3, was used. From each inhibitor concentration, 5 μL was added, obtaining a final concentration from 0 to 250 μM in a total volume of 0.2 mL. Activity measurements were routinely performed in duplicate. […] IC50 values were obtained by fitting the data with the four-parameter logistics equation using Grafit 7.
[formula] where s=slope factor, v=rate, I0=inhibitor concentration, and range=the fitted uninhibited value minus the background. The equation assumes they falls with increasing x.
(§2) Inhibitor stock solutions were prepared in DMSO and stored at −20° C. Because the compounds described in this paper completely inactivate KLK4 following pseudo first-order kinetics, the IC50 value is inversely correlated with the second-order rate constant of inactivation. For a simple pseudo first-order inactivation process, the activity after incubation with inhibitor (vi) varies with the inhibitor concentration (i), as described in the following equation: vi=v0×e^−k t, where vo is the activity in absence of inhibitor, k is the second-order rate constant of inactivation, and t is the time. The inactivation rate constant was determined from the time course of inhibition.

Assay [2] concerns the target T6, Neurtophil Elastase(human) (Homo sapiens, UniProt P08246).
T6 construct: purchased Enzo-life sciences
T6 sequence (P08246 30-267): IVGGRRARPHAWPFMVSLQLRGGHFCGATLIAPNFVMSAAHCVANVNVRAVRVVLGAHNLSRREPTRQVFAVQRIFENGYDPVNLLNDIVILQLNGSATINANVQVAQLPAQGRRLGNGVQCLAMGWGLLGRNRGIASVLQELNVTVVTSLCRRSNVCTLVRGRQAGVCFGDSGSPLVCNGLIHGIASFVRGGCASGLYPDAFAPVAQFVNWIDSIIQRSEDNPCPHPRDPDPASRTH
Briefly: Neutrophil elastase inhibition, chromogenic substrate MeOSuc-Ala-Ala-Pro-Val-pNA.
Description: as §1

A further assay addresses T7, Plasmine (human plasma) (Homo sapiens, UniProt P00747).
T7 construct: purchased Sigma-Aldrich; host or cells: human plasma
Briefly: Plasmin inhibition, chromogenic substrate Biophen CS-21(66).
Description: as §1

Another assay deals with AcHE (Homo sapiens, UniProt P22303). The assay is described as follows: AcHE inhibition.
AcHE, sequence (P22303 32-614): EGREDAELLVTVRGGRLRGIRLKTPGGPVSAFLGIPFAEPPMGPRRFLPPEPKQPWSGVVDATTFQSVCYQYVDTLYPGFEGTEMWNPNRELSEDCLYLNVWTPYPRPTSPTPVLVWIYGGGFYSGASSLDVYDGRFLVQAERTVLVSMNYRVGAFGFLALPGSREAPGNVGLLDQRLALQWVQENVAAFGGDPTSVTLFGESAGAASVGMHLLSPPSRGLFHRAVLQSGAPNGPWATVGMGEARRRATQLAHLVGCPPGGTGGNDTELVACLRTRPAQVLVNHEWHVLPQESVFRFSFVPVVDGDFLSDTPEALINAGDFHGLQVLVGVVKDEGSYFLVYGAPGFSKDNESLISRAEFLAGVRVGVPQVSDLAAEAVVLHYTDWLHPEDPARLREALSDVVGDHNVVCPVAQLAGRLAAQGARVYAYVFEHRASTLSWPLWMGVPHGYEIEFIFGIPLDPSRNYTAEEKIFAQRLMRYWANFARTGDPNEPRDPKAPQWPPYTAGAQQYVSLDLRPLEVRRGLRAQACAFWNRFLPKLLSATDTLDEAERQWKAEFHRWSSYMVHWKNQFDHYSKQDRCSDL
The next assay addresses T8, KLK8 (human) (Homo sapiens, UniProt O60259).
T8 construct: purchased Viktor Magdolen, TUMunich (TUM), supplied by an academic laboratory
T8 sequence (O60259 33-260): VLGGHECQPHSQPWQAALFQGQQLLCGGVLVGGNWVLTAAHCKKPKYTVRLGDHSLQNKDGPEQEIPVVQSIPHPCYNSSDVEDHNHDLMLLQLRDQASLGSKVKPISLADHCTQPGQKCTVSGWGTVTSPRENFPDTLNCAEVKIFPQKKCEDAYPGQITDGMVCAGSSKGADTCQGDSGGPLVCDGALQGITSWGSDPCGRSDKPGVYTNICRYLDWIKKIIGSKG
The assay is described as follows: KLK8 inhibition, fluorogenic substrate Boc-Val-Pro-Arg-AMC.
Description: as §1

The target of another assay is T9, PlasmaKLK (human plasma) (Homo sapiens, UniProt P03952).
T9 construct: purchased Sigma-Aldrich; host or cells: human plasma
T9 sequence (P03952 391-638 limits assumed): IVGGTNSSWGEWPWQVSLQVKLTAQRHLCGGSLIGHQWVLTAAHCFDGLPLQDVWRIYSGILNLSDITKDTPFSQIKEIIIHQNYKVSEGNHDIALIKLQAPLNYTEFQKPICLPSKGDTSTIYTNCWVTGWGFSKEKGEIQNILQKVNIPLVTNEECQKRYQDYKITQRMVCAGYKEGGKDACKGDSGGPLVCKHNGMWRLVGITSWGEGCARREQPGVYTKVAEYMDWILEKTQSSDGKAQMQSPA
T9 sequence (P03952 20-390 partner limits assumed): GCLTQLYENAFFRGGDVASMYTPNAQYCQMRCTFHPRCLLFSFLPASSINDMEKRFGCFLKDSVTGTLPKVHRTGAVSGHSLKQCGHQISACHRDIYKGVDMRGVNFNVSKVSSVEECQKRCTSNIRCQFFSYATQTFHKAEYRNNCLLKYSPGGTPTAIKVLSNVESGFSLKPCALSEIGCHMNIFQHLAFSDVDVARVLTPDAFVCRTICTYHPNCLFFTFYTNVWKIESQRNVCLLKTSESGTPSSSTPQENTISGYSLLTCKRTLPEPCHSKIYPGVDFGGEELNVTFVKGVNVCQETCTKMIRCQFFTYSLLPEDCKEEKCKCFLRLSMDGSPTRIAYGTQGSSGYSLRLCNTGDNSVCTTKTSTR
Briefly: Plasma kallikrein inhibition, chromogenic substrate Biophen CS-31(02).
Description: as §1

A further assay concerns the target T10, KLK1 (human) (Homo sapiens, UniProt P06870).
T10 construct: purchased Prospec
The assay is described as follows: KLK1 inhibition, fluorogenic substrate H-Pro-Phe-Arg-AMC.
Description: as §1

The target of assay [3] is T5, KLK4. Briefly: KLK4 inactivation kinetics from progress curves (kobs vs inhibitor concentration). As to the method:
as §2
The inhibitor was mixed with the substrate (250 μM final concentration), and the buffer solution with the enzyme was added at the time zero. […] The progress curves show the absorbance of aminomethylcoumarine produced as a function of time. Initially, no inhibitor is bound to the enzyme, and the tangent to the progress curve (dA/dt) is proportional to the concentration of the free enzyme. The concentration of free enzyme decreases over time due to the kinetics of inhibitor binding, as described above. Progress curves were recorded in pseudo first-order conditions ([I]0>>[E]0) and with less than 10% conversion of the substrate during the entire time course. In these conditions, dA/dt decreases exponentially with time. The progress curves were fitted with the integrated rate equation to yield a value for kobs, a pseudofirst-order rate constant At=v0[1−e^−k^obs^t]/kobs+A0 where At=absorbance at time t, A0=absorbance at time zero, and v0=uninhibited initial rate.
The apparent second-order rate constant (kapp) was calculated from the slope of the linear part of the plot of kobs versus the inhibitor concentration ([I]0). In case of competition between the inhibitor and the substrate, kapp is smaller than the “real” second order rate constant k discussed above because a certain fraction of the enzyme is present as an enzyme-substrate complex. kapp depends on the substrate concentration used in the experiment, as described by Lambeir et al. (Lambeir, Borloo et al. 1996).

In a further assay the target is T11, uPA (recombinant) (Homo sapiens, UniProt P00749).
T11 construct: purchased Nodia
The assay is described as follows: uPA inhibition, chromogenic substrate Biophen CS-61(44).

For the next assay, the target named is T12, KLK2 (human) (Homo sapiens, UniProt P20151).
T12 construct: purchased Viktor Magdolen, TUMunich (TUM), supplied by an academic laboratory
T12 sequence (P20151 25-261): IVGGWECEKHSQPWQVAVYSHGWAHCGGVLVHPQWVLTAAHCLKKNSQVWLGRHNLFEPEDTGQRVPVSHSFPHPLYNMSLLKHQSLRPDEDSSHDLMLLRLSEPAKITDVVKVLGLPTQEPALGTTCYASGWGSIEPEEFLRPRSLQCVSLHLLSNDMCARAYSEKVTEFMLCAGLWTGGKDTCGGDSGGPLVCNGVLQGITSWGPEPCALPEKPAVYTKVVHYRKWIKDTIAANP
The assay is described as follows: KLK2 inhibition, fluorogenic substrate H-Pro-Phe-Arg-AMC.
Description: as §1

Setting [4] is: Thrombin, Tris buffer pH 8.3, read-out: IC50 THR.
Where [5] appears, read: Tris buffer pH 8.3, read-out: IC50 FXa.
Where [6] appears, read: Tris buffer pH 8.3, read-out: IC50 tPA.
Setting [7] is: 15 min pre-incubation at 37° C., Tris buffer pH 8.3, read-out: IC50 KLK4.
Setting [8] is: Tris buffer pH 7.8, read-out: IC50 HNE.
[9] abbreviates: Plasmin, Tris buffer pH 7.4, read-out: IC50 PLM.
The mark [10] stands for this setting: Plasma KLK, Tris buffer pH 7.8, read-out: IC50 pKLK.
The mark [11] stands for this setting: Tris buffer pH 8.8, read-out: IC50 uPA.

Broadly, the IC50 is the concentration at which inhibition is half-maximal.

Read-outs that look alike come from different tables or passages of the source.

T5 sequence (Q9Y5K2 31-254): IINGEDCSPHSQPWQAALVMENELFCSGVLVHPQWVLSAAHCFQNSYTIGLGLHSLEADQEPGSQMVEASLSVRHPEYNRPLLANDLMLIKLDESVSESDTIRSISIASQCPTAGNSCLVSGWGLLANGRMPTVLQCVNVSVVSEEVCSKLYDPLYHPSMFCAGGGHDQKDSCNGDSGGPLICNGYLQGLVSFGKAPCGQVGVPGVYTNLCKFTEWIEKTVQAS
T10 sequence (P06870 25-262): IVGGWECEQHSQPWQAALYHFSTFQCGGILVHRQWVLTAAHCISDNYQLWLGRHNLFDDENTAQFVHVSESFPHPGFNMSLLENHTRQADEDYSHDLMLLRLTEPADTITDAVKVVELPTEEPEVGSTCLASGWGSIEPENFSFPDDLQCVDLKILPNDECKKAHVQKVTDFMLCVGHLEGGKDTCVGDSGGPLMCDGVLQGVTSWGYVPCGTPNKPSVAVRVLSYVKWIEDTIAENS
T2 sequence (P00742 235-488 limits assumed): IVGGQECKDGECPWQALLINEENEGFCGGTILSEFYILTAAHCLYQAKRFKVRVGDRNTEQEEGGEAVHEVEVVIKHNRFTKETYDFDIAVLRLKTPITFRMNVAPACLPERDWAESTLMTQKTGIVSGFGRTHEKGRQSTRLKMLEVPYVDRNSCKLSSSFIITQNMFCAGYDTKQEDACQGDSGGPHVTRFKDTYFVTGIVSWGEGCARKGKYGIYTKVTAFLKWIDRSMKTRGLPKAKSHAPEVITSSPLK
T2 sequence (P00742 41-179 partner limits assumed): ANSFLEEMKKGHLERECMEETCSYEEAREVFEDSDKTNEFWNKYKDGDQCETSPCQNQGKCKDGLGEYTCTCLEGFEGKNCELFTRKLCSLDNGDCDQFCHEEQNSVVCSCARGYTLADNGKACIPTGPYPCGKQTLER
T7 sequence (P00747 581-810 limits assumed): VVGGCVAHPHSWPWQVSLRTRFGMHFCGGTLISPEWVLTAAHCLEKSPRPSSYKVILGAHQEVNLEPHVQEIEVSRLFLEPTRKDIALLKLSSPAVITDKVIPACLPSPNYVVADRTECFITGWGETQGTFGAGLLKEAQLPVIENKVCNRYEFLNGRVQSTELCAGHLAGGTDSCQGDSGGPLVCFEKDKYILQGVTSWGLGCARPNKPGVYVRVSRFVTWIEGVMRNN
T7 sequence (P00747 98-580 partner limits assumed): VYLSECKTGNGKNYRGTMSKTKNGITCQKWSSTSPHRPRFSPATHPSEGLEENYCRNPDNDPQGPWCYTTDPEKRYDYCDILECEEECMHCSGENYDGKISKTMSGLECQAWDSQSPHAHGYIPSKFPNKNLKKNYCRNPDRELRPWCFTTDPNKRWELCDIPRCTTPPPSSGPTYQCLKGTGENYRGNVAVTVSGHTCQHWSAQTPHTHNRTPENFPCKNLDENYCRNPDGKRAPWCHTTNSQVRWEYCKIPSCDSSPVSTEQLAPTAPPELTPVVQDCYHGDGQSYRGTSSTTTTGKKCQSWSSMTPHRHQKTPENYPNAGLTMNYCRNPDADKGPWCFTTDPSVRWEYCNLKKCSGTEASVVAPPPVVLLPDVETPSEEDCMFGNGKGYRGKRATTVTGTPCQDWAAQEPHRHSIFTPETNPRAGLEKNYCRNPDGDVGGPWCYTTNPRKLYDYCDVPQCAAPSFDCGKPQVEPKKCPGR

Regarding “2-((1E,3E,5Z)-5-(1-(6-((2-(4-(1-(diphenoxyphosphoryl)-1-(4-guanidinophenyl)-3-oxo-4,7,10-trioxa-2-azaundecan-11-yl)-1H-1,2,3-triazol-1-yl)ethyl)amino)-6-oxohexyl)-3,3-dimethylindolin-2-ylidene)penta-1,3-dien-1-yl)-1,3,3-trimethyl-3H-indol-1-ium [Compound 134]”, the IC50 was 10 to 250 µM on Thrombine (human plasma) (setting [4]); 2.5 to 10 µM at FXa (setting [5]); more than 250 µM at tPA (recombinant) (setting [6]); 2.5 to 10 µM at Matriptase (Matriptase, read-out: IC50 MAT); 0.1 to 1 µM on KLK4 [1] (setting [7]); 10 to 250 µM in assay [2] (setting [8]). In addition, the half-maximal inhibitory concentration (IC50) on Plasmine (human plasma) (setting [9]) was 10 to 250 µM; on AcHE (read-out: IC50 AcHE), 10 to 250 µM; at KLK8 (human) (Tris buffer pH 8, read-out: IC50 KLK8), 2.5 to 10 µM; at PlasmaKLK (human plasma) (setting [10]), 10 to 250 µM; at KLK1 (human) (Tris buffer pH 7.8, read-out: IC50 KLK1), 2.5 to 10 µM; on uPA (recombinant) (setting [11]), 2.5 to 10 µM. Also, the “kapp KLK4” value at KLK4 [3] (apparent second-order rate constant, substrate 250 μM) came out at 2240 M⁻¹ s⁻¹. In addition, on KLK4 [3] (irreversible binding to KLK4, Yes/No), the “Irreversible (KLK4)” value was “Yes/”.
Consider `CCCCCC(=O)NCCOC(=O)NC(c1ccc(NC(=N)N)cc1)P(=O)(Oc1ccccc1)Oc1ccccc1` (stereo not shown) [Compound 31, 2-hexanamidoethyl ((diphenoxyphosphoryl)(4-guanidinophenyl)methyl) carbamate 2,2,2-trifluoroacetaat], for which the IC50 at Thrombine (human plasma) was more than 250 µM; against FXa it was 10 to 250 µM; at tPA (recombinant), more than 250 µM; against Matriptase it was 2.5 to 10 µM; against KLK4 [1] it was 0.1 to 1 µM; in assay [2], 10 to 250 µM. Moreover, the IC50 was more than 250 µM on Plasmine (human plasma); 10 to 250 µM against AcHE; 10 to 250 µM against KLK8 (human); 10 to 250 µM against PlasmaKLK (human plasma); 10 to 250 µM against KLK1 (human); 10 to 250 µM at uPA (recombinant).
For the molecule `N=C(N)Nc1ccc(C(NC(=O)OCCOCCOCc2cn(CCOCCOCCOCCNC(=O)CN3CCN(CC(=O)O)CCN(CC(=O)O)CCN(CC(=O)O)CC3)nn2)P(=O)(Oc2ccccc2)Oc2ccccc2)cc1` (stereo not shown) [Compound 83, 2,2′,2″-(10-(14-(4-(1-(diphenoxyphosphoryl)-1-(4-guanidinophenyl)-3-oxo-4,7,10-trioxa-2-azaundecan-11-yl)-1H-1,2,3-triazol-1-yl)-2-oxo-6,9,12-trioxa-3-azatetradecyl)-1,4,7,10-tetraazacyclododecane-1,4,7-triyl)triacetic acid], the IC50 on Thrombine (human plasma) was 10 to 250 µM; on FXa, 10 to 250 µM; on tPA (recombinant) it was 2.5 to 10 µM; at Matriptase it was 2.5 to 10 µM; at KLK4 [1] it was less than 0.1 µM; on Plasmine (human plasma) it was 10 to 250 µM. The IC50 against AcHE is 10 to 250 µM; against PlasmaKLK (human plasma), 10 to 250 µM; on KLK1 (human) it was 2.5 to 10 µM; at uPA (recombinant), 2.5 to 10 µM.
As for `COCCOCCOC(=O)NC(c1ccc(NC(=N)N)cc1)P(=O)(Oc1ccc(NC(C)=O)cc1)Oc1ccc(NC(C)=O)cc1` (stereo not shown) [Compound 114, 2-(2-methoxyethoxy)ethyl ((bis(4-acetamidophenoxy)phosphoryl)(4-guanidinophenyl)methyl) carbamate], the IC50 against Matriptase is 1 to 2.5 µM; at KLK4 [1], less than 0.1 µM; on Plasmine (human plasma) it was 10 to 250 µM; against KLK2 (human) it was 0.1 to 1 µM; against KLK8 (human) it was 1 to 2.5 µM; against KLK1 (human) it was 2.5 to 10 µM. Further, the IC50 at uPA (recombinant) was in the range of 2.5 to 10 µM.
Turning to `CCN(CC)c1ccc2c(-c3ccccc3C(=O)N3CCN(C(=O)CCCCCCCn4cc(COCCOCCOC(=O)NC(c5ccc(NC(=N)N)cc5)P(=O)(Oc5ccccc5)Oc5ccccc5)nn4)CC3)c3ccc(=[N+](CC)CC)cc-3oc2c1` (stereo not shown) [Compound 133, N-(6-(diethylamino)-9-(2-(4-(8-(4-(1-(diphenoxyphosphoryl)-1-(4-guanidinophenyl)-3-oxo-4,7,10-trioxa-2-azaundecan-11-yl)-1H-1,2,3-triazol-1-yl)octanoyl)piperazine-1-carbonyl)phenyl)-3H-xanthen-3-ylidene)-N-ethylethanaminium], the IC50 was 10 to 250 µM at Thrombine (human plasma) (setting [4]); 2.5 to 10 µM at FXa (setting [5]); more than 250 µM at tPA (recombinant) (setting [6]); 2.5 to 10 µM on Matriptase (Matriptase, read-out: IC50 MAT); less than 0.1 µM at KLK4 [1] (setting [7]); 10 to 250 µM in [2] (setting [8]). Besides, the IC50 on Plasmine (human plasma) (setting [9]) lay within 10 to 250 µM; at PlasmaKLK (human plasma) (setting [10]), 10 to 250 µM; on uPA (recombinant) (setting [11]) it was 2.5 to 10 µM.

Source of the values: patent US10017527B2, “KLK4 inhibitors” (Universiteit Antwerpen, priority 2014, dated 2018).
